Assay results: PubChem BioAssay (NCI)
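Each compound was tested at five concentrations against cells in 96-well plates for 48 hours. Definition used: TGI = concentration required for complete inhibition of growth.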

How the values were obtained:
Assay in all cases: inhibition of tumour cell growth, NCI panel, 48 h
[1] = test system: CCRF-CEM leukemia
[2] = test system: TK-10 renal
[3] = test system: MDA-MB-435
[4] = test system: A498 renal
[5] = test system: MCF7 breast
[6] = test system: SNB-19 CNS
[7] = test system: RXF 393 renal
[8] = test system: HCC-2998 colon
[9] = test system: OVCAR-4 ovarian
[10] = test system: UACC-257 melanoma
[11] = test system: HL-60(TB) leukemia
[12] = test system: SN12C renal
[13] = test system: COLO 205 colon
[14] = test system: UACC-62 melanoma
[15] = test system: HS 578T breast
[16] = test system: SK-MEL-28 melanoma
[17] = test system: K-562 leukemia
[18] = test system: BT-549 breast
[19] = test system: NCI-H23 lung
[20] = test system: HCT-116 colon
[21] = test system: CAKI-1 renal
[22] = test system: OVCAR-8 ovarian
[23] = test system: SF-268 CNS
[24] = test system: DU-145 prostate
[25] = test system: HCT-15 colon
[26] = test system: U251 CNS
[27] = test system: MDA-MB-231 breast
[28] = test system: OVCAR-5 ovarian
[29] = test system: A549 NSCLC
[30] = test system: SK-MEL-5 melanoma
[31] = test system: ACHN renal
[32] = test system: NCI-H460 lung
[33] = test system: KM12 colon
[34] = test system: SK-MEL-2 melanoma
[35] = test system: SR leukemia
[36] = test system: 786-0 renal
[37] = test system: MALME-3M melanoma
[38] = test system: SNB-75 CNS
[39] = test system: SW-620 colon
[40] = test system: UO-31 renal
[41] = test system: MDA-N
[42] = test system: PC-3 prostate
[43] = test system: T-47D breast
[44] = test system: SF-295 CNS
[45] = test system: IGROV1 ovarian
[46] = test system: LOX IMVI melanoma
[47] = test system: EKVX NSCLC
[48] = test system: RPMI-8226 leukemia
[49] = test system: M14 melanoma
[50] = test system: OVCAR-3 ovarian
[51] = test system: MOLT-4 leukemia
[52] = test system: SK-OV-3 ovarian
[53] = test system: HOP-62 NSCLC
[54] = test system: NCI/ADR-RES ovarian
[55] = test system: SF-539 CNS
[56] = test system: HT29 colon
[57] = test system: HOP-92 NSCLC
[58] = test system: NCI-H522 lung
[59] = test system: NCI-H226 lung

Measured: TGI

Cc1ccc(O)c(C2=CC3=NNC(=O)C3C(c3cccc(Br)c3)C2)c1 (stereo not drawn)
22.8 µM: [13]
37 µM: [9]
68.7 µM: [50]
70.9 µM: [14]
27.3 µM: [46]
41.3 µM: [2]
63.5 µM: [12]
71.1 µM: [37]
31.7 µM: [5] | [8]
51.6 µM: [44]
72.8 µM: [48]
39.5 µM: [33]
64.1 µM: [18]
68.5 µM: [28]
63.9 µM: [52]
70 µM: [38]
64.8 µM: [22]
59.4 µM: [27]
28.2 µM: [7]
not listed: [58] | [59]
> 75 µM: all other assays above

CCN=c1nc2sc3c(c2c(NC(=S)NCC)s1)CCN(N1CCc2c(sc4nc(=NCC)sc(NC(=S)NCC)c24)C1)C3
53.2 µM: [7]
39.5 µM: [55]
84.7 µM: [57]
52.3 µM: [20]
82.6 µM: [27]
not listed: [48]
> 100 µM: all other assays above

Cn1c(-c2ccccc2)cc(-c2cccs2)c1-c1ccsc1
not listed: [16] | [37] | [58]
> 100 µM: all other assays above

O=c1c(=O)c2cscc2c1=O
9.85 µM: [3]
8.85 µM: [49]
10.6 µM: [56]
11.4 µM: [24]
8.75 µM: [14]
15.2 µM: [6]
9.66 µM: [20]
10.8 µM: [53]
9.19 µM: [26]
9.6 µM: [40]
23.3 µM: [32]
8.72 µM: [18]
12.1 µM: [48]
9.37 µM: [16]
10.1 µM: [36]
9.07 µM: [55]
8.49 µM: [21]
11.1 µM: [9]
14.1 µM: [25]
11.2 µM: [39] | [57]
7.89 µM: [30]
10 µM: [27] | [46] | [51]
8.4 µM: [45]
8.6 µM: [42]
6.5 µM: [17]
10.5 µM: [59]
8.82 µM: [23]
8.61 µM: [13]
16.4 µM: [22]
11.8 µM: [43]
8.04 µM: [2]
7.96 µM: [10]
9.61 µM: [28]
9.2 µM: [7]
9.72 µM: [41]
8.39 µM: [37]
9.31 µM: [34]
8.37 µM: [31] | [38]
12.3 µM: [19]
13.3 µM: [12]
15.3 µM: [5]
6.44 µM: [8]
1.1 µM: [35]
10.7 µM: [47]
15.1 µM: [50]
12.7 µM: [33]
not listed: [1] | [11] | [58]
> 25 µM: all other assays above

CC1OC(Oc2c(-c3cc(O)c(O)c(O)c3)oc3cc(O)cc(O)c3c2=O)C(O)C(O)C1O (stereo not drawn)
not listed: [1] | [17] | [32]
> 100 µM: all other assays above
